{
  "source": "paper doi:10.1101/2023.11.24.568596v1",
  "about": "(biorxiv, 2023)",
  "settings_in_all_cases": "binder",
  "key": {"PAK1": {"target": "PAK1 (Homo sapiens, UniProt Q13153)", "sequence (Q13153 whole entry)": "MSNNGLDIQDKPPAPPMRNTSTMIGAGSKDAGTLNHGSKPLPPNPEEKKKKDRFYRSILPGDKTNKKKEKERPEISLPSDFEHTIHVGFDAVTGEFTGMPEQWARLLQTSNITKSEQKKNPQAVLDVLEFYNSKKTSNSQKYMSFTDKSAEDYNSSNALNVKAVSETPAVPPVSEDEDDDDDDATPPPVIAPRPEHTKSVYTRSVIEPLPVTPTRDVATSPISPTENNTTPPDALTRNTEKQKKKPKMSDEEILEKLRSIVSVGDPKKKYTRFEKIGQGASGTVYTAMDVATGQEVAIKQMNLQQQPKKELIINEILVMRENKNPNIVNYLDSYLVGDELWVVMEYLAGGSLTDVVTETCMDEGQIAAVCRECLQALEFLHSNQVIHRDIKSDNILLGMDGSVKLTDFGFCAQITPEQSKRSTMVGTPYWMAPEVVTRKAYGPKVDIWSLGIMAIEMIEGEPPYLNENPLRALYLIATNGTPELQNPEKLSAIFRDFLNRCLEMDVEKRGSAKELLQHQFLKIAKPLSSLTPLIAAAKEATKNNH"}, "TTK": {"target": "T1, TTK (Homo sapiens, UniProt P33981)", "T1 sequence (P33981 1-857)": "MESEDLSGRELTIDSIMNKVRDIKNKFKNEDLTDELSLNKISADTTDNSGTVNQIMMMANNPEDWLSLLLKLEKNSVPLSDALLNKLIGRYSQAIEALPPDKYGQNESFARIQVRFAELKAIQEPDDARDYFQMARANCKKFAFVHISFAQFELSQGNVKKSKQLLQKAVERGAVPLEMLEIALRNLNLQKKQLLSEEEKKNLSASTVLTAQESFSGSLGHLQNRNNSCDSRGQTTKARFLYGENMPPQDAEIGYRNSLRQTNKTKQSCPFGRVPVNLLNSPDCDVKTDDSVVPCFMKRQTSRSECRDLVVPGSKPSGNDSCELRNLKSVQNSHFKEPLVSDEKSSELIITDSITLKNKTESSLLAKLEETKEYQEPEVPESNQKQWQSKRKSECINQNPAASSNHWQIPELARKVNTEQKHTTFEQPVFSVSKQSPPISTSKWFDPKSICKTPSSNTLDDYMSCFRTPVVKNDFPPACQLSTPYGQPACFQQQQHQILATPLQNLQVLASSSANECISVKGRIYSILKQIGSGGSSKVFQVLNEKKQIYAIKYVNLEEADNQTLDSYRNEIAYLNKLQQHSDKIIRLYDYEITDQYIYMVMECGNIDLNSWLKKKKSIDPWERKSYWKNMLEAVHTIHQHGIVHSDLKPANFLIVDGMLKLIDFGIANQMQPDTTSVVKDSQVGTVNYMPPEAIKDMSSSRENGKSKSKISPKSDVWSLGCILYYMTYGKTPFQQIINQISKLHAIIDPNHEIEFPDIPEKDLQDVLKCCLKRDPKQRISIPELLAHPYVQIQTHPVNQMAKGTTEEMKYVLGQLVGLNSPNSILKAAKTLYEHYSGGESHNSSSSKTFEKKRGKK"}, "TLK1": {"target": "T2, TLK1 (Homo sapiens, UniProt Q9UKI8)", "T2 sequence (Q9UKI8 1-766)": "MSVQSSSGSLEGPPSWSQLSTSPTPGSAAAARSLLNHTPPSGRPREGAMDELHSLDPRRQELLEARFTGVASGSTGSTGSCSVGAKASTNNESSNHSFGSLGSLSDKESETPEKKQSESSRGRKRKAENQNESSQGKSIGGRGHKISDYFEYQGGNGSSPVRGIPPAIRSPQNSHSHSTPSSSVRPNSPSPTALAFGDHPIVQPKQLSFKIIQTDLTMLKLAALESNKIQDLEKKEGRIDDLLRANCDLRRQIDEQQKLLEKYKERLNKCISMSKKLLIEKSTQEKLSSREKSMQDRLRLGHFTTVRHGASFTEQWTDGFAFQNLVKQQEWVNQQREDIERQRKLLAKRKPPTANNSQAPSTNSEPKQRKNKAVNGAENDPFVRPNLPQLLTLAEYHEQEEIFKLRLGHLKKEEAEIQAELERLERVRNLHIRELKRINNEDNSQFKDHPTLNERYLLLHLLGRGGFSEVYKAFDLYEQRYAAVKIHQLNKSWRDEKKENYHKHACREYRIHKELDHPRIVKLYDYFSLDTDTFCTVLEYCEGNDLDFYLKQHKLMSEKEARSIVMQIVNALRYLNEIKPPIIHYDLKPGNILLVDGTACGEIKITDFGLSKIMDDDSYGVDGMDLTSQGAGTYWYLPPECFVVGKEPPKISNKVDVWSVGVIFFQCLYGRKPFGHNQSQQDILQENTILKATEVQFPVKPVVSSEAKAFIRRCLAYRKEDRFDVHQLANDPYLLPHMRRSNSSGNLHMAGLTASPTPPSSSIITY"}, "STLK3": {"target": "STLK3 (Homo sapiens, UniProt Q9UEW8)"}, "VRK1": {"target": "T3, VRK1 (Homo sapiens, UniProt Q99986)", "T3 sequence (Q99986 1-396)": "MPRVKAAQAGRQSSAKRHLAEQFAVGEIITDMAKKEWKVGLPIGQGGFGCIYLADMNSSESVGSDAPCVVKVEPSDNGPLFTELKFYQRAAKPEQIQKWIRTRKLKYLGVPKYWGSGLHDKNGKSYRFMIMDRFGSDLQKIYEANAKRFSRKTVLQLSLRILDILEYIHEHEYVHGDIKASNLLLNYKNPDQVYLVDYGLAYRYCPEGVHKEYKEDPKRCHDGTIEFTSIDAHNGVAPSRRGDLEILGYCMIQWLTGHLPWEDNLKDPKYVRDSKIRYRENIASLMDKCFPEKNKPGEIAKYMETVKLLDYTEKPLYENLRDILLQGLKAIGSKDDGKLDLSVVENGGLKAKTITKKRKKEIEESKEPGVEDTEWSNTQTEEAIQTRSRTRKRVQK"}, "SLK": {"target": "SLK (Homo sapiens, UniProt Q9H2G2)", "sequence (Q9H2G2 whole entry)": "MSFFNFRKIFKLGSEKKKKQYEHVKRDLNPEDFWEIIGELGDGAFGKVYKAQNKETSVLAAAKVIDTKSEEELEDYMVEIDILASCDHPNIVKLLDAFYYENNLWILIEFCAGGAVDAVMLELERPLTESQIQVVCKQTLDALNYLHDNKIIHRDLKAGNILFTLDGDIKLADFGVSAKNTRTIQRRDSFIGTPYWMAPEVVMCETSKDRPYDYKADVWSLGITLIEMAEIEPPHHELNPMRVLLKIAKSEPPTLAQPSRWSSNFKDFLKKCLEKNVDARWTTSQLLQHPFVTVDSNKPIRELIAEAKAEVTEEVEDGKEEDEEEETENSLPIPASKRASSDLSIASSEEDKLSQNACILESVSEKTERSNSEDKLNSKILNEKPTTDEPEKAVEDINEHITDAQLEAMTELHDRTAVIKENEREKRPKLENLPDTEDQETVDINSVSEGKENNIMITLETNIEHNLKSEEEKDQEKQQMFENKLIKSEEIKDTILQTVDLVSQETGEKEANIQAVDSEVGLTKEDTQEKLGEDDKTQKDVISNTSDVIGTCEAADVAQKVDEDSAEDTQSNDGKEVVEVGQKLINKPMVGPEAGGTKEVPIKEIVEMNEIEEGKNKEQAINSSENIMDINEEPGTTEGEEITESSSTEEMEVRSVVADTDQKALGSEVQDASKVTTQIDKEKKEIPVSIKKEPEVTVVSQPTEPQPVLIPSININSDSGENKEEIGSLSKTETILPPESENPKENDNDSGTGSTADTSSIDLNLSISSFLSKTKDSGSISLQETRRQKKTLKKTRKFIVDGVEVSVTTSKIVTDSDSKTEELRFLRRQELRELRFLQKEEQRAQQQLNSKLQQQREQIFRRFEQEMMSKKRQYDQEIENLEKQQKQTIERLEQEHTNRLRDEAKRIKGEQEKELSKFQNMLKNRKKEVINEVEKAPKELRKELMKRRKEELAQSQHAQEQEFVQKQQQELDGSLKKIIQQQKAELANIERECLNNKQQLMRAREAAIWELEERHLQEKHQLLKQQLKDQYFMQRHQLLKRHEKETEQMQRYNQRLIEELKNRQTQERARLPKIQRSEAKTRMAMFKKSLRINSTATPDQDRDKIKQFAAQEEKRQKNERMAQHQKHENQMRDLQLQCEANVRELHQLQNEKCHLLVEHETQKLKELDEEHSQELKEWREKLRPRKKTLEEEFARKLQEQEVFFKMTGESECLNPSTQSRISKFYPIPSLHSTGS"}, "TAF1": {"target": "TAF1 (Homo sapiens, UniProt P21675)"}, "Wnk1": {"target": "Wnk1 (Homo sapiens, UniProt Q9H4A3)", "sequence (Q9H4A3 whole entry)": "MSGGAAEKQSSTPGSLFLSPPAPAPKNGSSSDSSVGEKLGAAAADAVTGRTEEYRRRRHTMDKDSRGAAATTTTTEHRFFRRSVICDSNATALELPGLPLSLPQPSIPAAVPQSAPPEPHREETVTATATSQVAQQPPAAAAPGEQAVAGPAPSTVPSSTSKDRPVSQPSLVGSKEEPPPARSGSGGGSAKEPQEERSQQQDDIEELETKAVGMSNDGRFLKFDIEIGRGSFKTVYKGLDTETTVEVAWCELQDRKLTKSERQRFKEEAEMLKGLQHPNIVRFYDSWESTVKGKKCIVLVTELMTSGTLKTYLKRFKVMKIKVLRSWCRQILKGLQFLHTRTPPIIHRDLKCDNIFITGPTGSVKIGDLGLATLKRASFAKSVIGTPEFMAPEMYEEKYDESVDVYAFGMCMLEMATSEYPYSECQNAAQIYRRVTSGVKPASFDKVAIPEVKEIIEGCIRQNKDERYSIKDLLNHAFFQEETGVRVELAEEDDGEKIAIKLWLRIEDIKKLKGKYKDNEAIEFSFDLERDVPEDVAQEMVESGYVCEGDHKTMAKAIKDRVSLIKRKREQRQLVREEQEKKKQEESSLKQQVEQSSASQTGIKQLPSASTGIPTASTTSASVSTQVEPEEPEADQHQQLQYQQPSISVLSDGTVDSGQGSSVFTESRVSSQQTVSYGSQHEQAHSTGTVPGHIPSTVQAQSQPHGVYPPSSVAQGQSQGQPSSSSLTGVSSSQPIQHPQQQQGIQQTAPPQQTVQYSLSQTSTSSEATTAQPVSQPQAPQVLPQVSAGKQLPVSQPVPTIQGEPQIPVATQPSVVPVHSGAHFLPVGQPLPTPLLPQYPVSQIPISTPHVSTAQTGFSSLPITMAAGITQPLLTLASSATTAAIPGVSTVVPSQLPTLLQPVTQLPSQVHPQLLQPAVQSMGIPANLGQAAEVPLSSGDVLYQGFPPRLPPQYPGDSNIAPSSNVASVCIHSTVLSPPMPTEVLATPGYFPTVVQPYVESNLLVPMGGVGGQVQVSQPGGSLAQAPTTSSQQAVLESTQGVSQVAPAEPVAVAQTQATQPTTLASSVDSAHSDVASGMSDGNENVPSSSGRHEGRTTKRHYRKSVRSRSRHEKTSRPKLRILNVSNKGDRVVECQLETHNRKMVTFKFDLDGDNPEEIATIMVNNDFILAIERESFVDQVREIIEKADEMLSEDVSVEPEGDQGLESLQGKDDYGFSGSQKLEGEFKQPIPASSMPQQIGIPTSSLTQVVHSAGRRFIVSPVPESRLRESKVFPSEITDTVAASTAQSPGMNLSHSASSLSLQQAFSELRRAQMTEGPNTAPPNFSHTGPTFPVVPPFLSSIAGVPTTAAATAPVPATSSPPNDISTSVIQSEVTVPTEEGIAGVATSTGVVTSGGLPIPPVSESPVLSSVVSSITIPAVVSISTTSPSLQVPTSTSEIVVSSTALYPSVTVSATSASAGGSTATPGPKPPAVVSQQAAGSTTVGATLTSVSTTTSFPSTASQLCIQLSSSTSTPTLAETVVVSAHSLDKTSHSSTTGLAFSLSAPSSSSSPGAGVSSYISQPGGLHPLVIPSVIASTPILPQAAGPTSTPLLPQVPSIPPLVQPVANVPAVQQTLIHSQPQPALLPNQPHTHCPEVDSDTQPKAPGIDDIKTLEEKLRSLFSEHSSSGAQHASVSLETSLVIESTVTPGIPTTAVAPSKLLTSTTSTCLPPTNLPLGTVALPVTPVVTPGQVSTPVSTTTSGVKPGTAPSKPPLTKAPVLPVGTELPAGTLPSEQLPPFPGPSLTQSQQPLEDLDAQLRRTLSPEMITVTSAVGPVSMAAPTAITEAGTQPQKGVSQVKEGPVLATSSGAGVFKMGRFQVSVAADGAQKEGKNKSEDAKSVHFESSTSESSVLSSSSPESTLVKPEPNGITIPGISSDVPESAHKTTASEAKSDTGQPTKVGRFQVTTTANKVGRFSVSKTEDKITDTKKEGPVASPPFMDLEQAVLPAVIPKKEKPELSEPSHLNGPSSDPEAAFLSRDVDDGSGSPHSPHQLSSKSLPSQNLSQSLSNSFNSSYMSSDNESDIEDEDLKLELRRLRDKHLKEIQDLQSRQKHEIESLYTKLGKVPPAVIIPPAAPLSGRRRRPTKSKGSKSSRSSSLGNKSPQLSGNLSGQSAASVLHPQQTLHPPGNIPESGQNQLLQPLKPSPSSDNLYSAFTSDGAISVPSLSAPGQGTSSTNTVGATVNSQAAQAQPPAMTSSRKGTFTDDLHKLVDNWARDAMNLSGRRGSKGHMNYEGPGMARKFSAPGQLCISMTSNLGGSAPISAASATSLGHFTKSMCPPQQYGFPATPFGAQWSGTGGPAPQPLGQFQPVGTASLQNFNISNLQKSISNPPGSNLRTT"}},
  "data": [
    {"smiles": "Cc1cccc(-c2ccc(-c3cc4cnc(NCCCN5CCOCC5)nc4n(CCCCN)c3=O)c(Cl)c2)n1", "note": "[compound 26, MR26]", "values": [
      {"measurement": "dTm PAK1", "setting": "PAK1", "value": 4.1, "unit": "°C"},
      {"measurement": "ΔTm MR26 (26)", "setting": "TTK", "value": -0.2, "unit": "°C"},
      {"measurement": "ΔTm MR26 (26)", "setting": "TLK1", "value": -1.6, "unit": "°C"},
      {"measurement": "ΔTm MR26 (26)", "setting": "STLK3", "value": 10.4, "unit": "°C"},
      {"measurement": "ΔTm MR26 (26)", "setting": "VRK1", "value": 0.4, "unit": "°C"},
      {"measurement": "ΔTm MR26 (26)", "setting": "SLK", "value": 2.3, "unit": "°C"},
      {"measurement": "ΔTm MR26 (26)", "setting": "TAF1", "value": 0.0, "unit": "°C"},
      {"measurement": "ΔTm MR26 (26)", "setting": "Wnk1", "value": 1.0, "unit": "°C"}
    ]},
    {"smiles": "Cc1cccc(-c2ccc(-c3cc4cnc(Nc5ccc(O)cc5)nc4n(CCCCN)c3=O)c(Cl)c2)n1", "note": "[compound 31, 8-(4-Aminobutyl)-6-(2-chloro-4-(6-methylpyridin-2-yl)phenyl)-2-((4-hydroxyphenyl)amino) pyrido[2,3-d]pyrimidin-7(8H)-one]", "values": [
      {"measurement": "dTm PAK1", "setting": "PAK1", "value": 9.2, "unit": "°C"},
      {"measurement": "ΔTm 31", "setting": "TTK", "value": 5.1, "unit": "°C"},
      {"measurement": "ΔTm 31", "setting": "TLK1", "value": -1.6, "unit": "°C"},
      {"measurement": "ΔTm 31", "setting": "STLK3", "value": 16.6, "unit": "°C"},
      {"measurement": "ΔTm 31", "setting": "VRK1", "value": 0.9, "unit": "°C"},
      {"measurement": "ΔTm 31", "setting": "SLK", "value": 7.7, "unit": "°C"},
      {"measurement": "ΔTm 31", "setting": "TAF1", "value": -1.0, "unit": "°C"},
      {"measurement": "ΔTm 31", "setting": "Wnk1", "value": 3.1, "unit": "°C"}
    ]},
    {"smiles": "Cc1cccc(-c2ccc(-c3cc4cnc(NCCCN5CCNCC5)nc4n(CCCCN)c3=O)c(Cl)c2)n1", "note": "[compound 29, 8-(4-Aminobutyl)-6-(2-chloro-4-(6-methylpyridin-2-yl)phenyl)-2-((3-(piperazin-1-yl)propyl)amino)pyrido[2,3-d]pyrimidin-7(8H)-one]", "values": [
      {"measurement": "dTm PAK1", "setting": "PAK1", "value": 5.0, "unit": "°C"},
      {"measurement": "ΔTm 29", "setting": "TTK", "value": -0.4, "unit": "°C"},
      {"measurement": "ΔTm 29", "setting": "TLK1", "value": -1.5, "unit": "°C"},
      {"measurement": "ΔTm 29", "setting": "STLK3", "value": 8.8, "unit": "°C"},
      {"measurement": "ΔTm 29", "setting": "VRK1", "value": 0.4, "unit": "°C"},
      {"measurement": "ΔTm 29", "setting": "SLK", "value": 3.5, "unit": "°C"},
      {"measurement": "ΔTm 29", "setting": "TAF1", "value": 0.2, "unit": "°C"},
      {"measurement": "ΔTm 29", "setting": "Wnk1", "value": 0.6, "unit": "°C"}
    ]}
  ]
}
